Measurements reported in PubChem BioAssay AID248 (DTP/NCI, 2004).
Values joined by “and” are separate entries in the source; they are usually repeats but may differ in a detail not shown here. Identical values can stand only once. Toxic doses and inconclusive results are not listed. Rule as the data show it: active = T/C of 150% or more; inactive = T/C below 125%.

Test system: L1210 leukemia ip in BDF1 mice, survival T/C
Assay: NCI In Vivo Anticancer Drug Screen. Data for tumor model L1210 Leukemia (intraperitoneal) in B6D2F1 (BDF1) mice
Details: higher = longer survival
How it was run: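 Read-out is survival time, reported as the treated-group measurement over the vehicle-control measurement.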

[1] = endpoint: mean survival time, dose: 50.0 mg/kg/injection, schedule: Q01DX009 (ip), vehicle: saline with Tween-80
[2] = endpoint: mean survival time, dose: 100.0 mg/kg/injection, schedule: Q01DX009 (ip), vehicle: saline with Tween-80
[3] = endpoint: mean survival time, dose: 100.0 mg/kg/injection, schedule: Q04DX003 (ip), vehicle: saline with Tween-80
[4] = endpoint: mean survival time, dose: 200.0 mg/kg/injection, schedule: Q01DX009 (ip), vehicle: saline with Tween-80
[5] = endpoint: mean survival time, dose: 200.0 mg/kg/injection, schedule: Q04DX003 (ip), vehicle: saline with Tween-80
[6] = endpoint: mean survival time, dose: 50.0 mg/kg/injection, schedule: Q04DX003 (ip), vehicle: Klucel (hydroxypropylcellulose) (HPC)
[7] = endpoint: mean survival time, dose: 100.0 mg/kg/injection, schedule: Q04DX003 (ip), vehicle: Klucel (hydroxypropylcellulose) (HPC)
[8] = endpoint: mean survival time, dose: 100.0 mg/kg/injection, schedule: Q04DX003 (ip), vehicle: saline
[9] = endpoint: mean survival time, dose: 400.0 mg/kg/injection, schedule: Q04DX003 (ip), vehicle: saline
[10] = endpoint: mean survival time, dose: 100.0 mg/kg/injection, schedule: Q01DX009 (ip), vehicle: Klucel (hydroxypropylcellulose) (HPC)
[11] = endpoint: mean survival time, dose: 200.0 mg/kg/injection, schedule: Q01DX009 (ip), vehicle: Klucel (hydroxypropylcellulose) (HPC)
[12] = endpoint: mean survival time, dose: 200.0 mg/kg/injection, schedule: Q04DX003 (ip), vehicle: Klucel (hydroxypropylcellulose) (HPC)
[13] = endpoint: mean survival time, dose: 400.0 mg/kg/injection, schedule: Q04DX003 (ip), vehicle: Klucel (hydroxypropylcellulose) (HPC)

Measured: T/C

Cc1nc2ccccc2[nH]c1=O
inactive: endpoint: mean survival time, dose: 75.0 mg/kg/injection, schedule: Q04DX003 (ip), vehicle: saline 96 % of control | endpoint: mean survival time, dose: 100.0 mg/kg/injection, schedule: Q01DX001 (ip), vehicle: other 97 % of control | endpoint: mean survival time, dose: 150.0 mg/kg/injection, schedule: Q04DX003 (ip), vehicle: saline 100 % of control | endpoint: mean survival time, dose: 200.0 mg/kg/injection, schedule: Q01DX001 (ip), vehicle: other 100 % of control | endpoint: mean survival time, dose: 300.0 mg/kg/injection, schedule: Q04DX003 (ip), vehicle: saline 96 % of control | endpoint: mean survival time, dose: 400.0 mg/kg/injection, schedule: Q01DX001 (ip), vehicle: other 93 % of control

Cc1ccc(CNc2ccc([N+](=O)[O-])cc2)cc1
inactive: [1] 92 % of control | [2] 103 % of control | [3] 93 % of control | [4] 97 % of control | [5] 101 % of control | endpoint: mean survival time, dose: 400.0 mg/kg/injection, schedule: Q04DX003 (ip), vehicle: saline with Tween-80 88 % of control

CCCCCCCCCCCCCCN(C)C
inactive: endpoint: mean survival time, dose: 25.0 mg/kg/injection, schedule: Q04DX003 (ip), vehicle: Klucel (hydroxypropylcellulose) (HPC) 107 % of control | [6] 108 % of control | [7] 94 % of control and 96 % of control

O=C1OC(/C=C/c2ccccc2)=NC/1=C\c1ccc(O)cc1
inactive: endpoint: mean survival time, dose: 100.0 mg/kg/injection, schedule: Q04DX002 (ip), vehicle: saline with Tween-80 104 % of control | endpoint: mean survival time, dose: 200.0 mg/kg/injection, schedule: Q04DX002 (ip), vehicle: saline with Tween-80 93 % of control | endpoint: mean survival time, dose: 400.0 mg/kg/injection, schedule: Q04DX002 (ip), vehicle: saline with Tween-80 93 % of control

Cn1c(CC(O)(C(F)(F)F)C(F)(F)F)ccc1CC(O)(C(F)(F)F)C(F)(F)F
inactive: endpoint: mean survival time, dose: 100.0 mg/kg/injection, schedule: Q01DX001 (ip), vehicle: gum acacia 107 % of control | endpoint: mean survival time, dose: 200.0 mg/kg/injection, schedule: Q01DX001 (ip), vehicle: gum acacia 103 % of control | endpoint: mean survival time, dose: 400.0 mg/kg/injection, schedule: Q01DX001 (ip), vehicle: gum acacia 98 % of control

CCOC(=O)Cn1c(=O)n(CC(=O)OCC)c2ccccc21
inactive: endpoint: mean survival time, dose: 100.0 mg/kg/injection, schedule: Q04DX002 (ip), vehicle: Klucel (hydroxypropylcellulose) (HPC) 104 % of control | endpoint: mean survival time, dose: 200.0 mg/kg/injection, schedule: Q04DX002 (ip), vehicle: Klucel (hydroxypropylcellulose) (HPC) 100 % of control | endpoint: mean survival time, dose: 400.0 mg/kg/injection, schedule: Q04DX002 (ip), vehicle: Klucel (hydroxypropylcellulose) (HPC) 110 % of control

COc1cc(Cl)ccc1NC(=O)COc1ccc(Cl)cc1
inactive: [2] 92 % of control | [4] 92 % of control | endpoint: mean survival time, dose: 400.0 mg/kg/injection, schedule: Q01DX009 (ip), vehicle: saline with Tween-80 86 % of control

Cc1nc2nc(N)nc(N)c2nc1CN(C)c1ccc(C(=O)NC(CCC(=O)O)C(=O)O)cc1 (stereo not given)
inactive: endpoint: median survival time, dose: 0.39 mg/kg/injection, schedule: Q01DX009 (ip), vehicle: other 100 % of control | endpoint: median survival time, dose: 0.65 mg/kg/injection, schedule: Q01DX009 (ip), vehicle: other 100 % of control | endpoint: median survival time, dose: 1.08 mg/kg/injection, schedule: Q01DX009 (ip), vehicle: other 100 % of control | endpoint: median survival time, dose: 1.8 mg/kg/injection, schedule: Q01DX009 (ip), vehicle: other 100 % of control and 90 % of control | endpoint: median survival time, dose: 5.0 mg/kg/injection, schedule: Q01DX009 (ip), vehicle: other 90 % of control | endpoint: median survival time, dose: 14.0 mg/kg/injection, schedule: Q01DX009 (ip), vehicle: other 100 % of control | endpoint: median survival time, dose: 39.0 mg/kg/injection, schedule: Q01DX009 (ip), vehicle: other 100 % of control | endpoint: median survival time, dose: 108.0 mg/kg/injection, schedule: Q01DX009 (ip), vehicle: other 100 % of control | endpoint: median survival time, dose: 180.0 mg/kg/injection, schedule: Q01DX009 (ip), vehicle: other 110 % of control | endpoint: median survival time, dose: 300.0 mg/kg/injection, schedule: Q01DX009 (ip), vehicle: other 100 % of control

Cc1ccc(S(=O)(=O)O/N=C/C23c4ccccc4C4C(c5ccccc52)C43)cc1 (stereo not given)
inactive: endpoint: mean survival time, dose: 25.0 mg/kg/injection, schedule: Q04DX002 (ip), vehicle: saline with Tween-80 100 % of control | endpoint: mean survival time, dose: 150.0 mg/kg/injection, schedule: Q04DX002 (ip), vehicle: saline with Tween-80 93 % of control | endpoint: mean survival time, dose: 300.0 mg/kg/injection, schedule: Q04DX002 (ip), vehicle: saline with Tween-80 93 % of control

CCN(CC)C(=O)N(CC)C(=O)CN(C)C
inactive: [8] 102 % of control | endpoint: mean survival time, dose: 200.0 mg/kg/injection, schedule: Q04DX003 (ip), vehicle: saline 102 % of control | [9] 96 % of control

Cc1ccc(NC(=O)c2ccccc2Cl)cc1Cl
inactive: endpoint: mean survival time, dose: 25.0 mg/kg/injection, schedule: Q04DX004 (ip), vehicle: Klucel (hydroxypropylcellulose) (HPC) 89 % of control | endpoint: mean survival time, dose: 50.0 mg/kg/injection, schedule: Q04DX004 (ip), vehicle: Klucel (hydroxypropylcellulose) (HPC) 98 % of control | [10] 96 % of control | endpoint: mean survival time, dose: 100.0 mg/kg/injection, schedule: Q01DX009 (ip), vehicle: saline 110 % of control | [7] 95 % of control | [8] 120 % of control | endpoint: mean survival time, dose: 100.0 mg/kg/injection, schedule: Q04DX004 (ip), vehicle: Klucel (hydroxypropylcellulose) (HPC) 88 % of control | endpoint: mean survival time, dose: 135.0 mg/kg/injection, schedule: Q04DX004 (ip), vehicle: Klucel (hydroxypropylcellulose) (HPC) 96 % of control | [11] 94 % of control | endpoint: mean survival time, dose: 200.0 mg/kg/injection, schedule: Q01DX009 (ip), vehicle: saline 102 % of control | [12] 95 % of control | endpoint: mean survival time, dose: 400.0 mg/kg/injection, schedule: Q01DX009 (ip), vehicle: Klucel (hydroxypropylcellulose) (HPC) 98 % of control | endpoint: mean survival time, dose: 400.0 mg/kg/injection, schedule: Q01DX009 (ip), vehicle: saline 102 % of control | [13] 96 % of control | [9] 115 % of control

CCCC(CN(CCN(C)C)Cc1ccccc1)c1ccc(OC)cc1 (stereo not given)
inactive: endpoint: mean survival time, dose: 100.0 mg/kg/injection, schedule: Q01DX001 (ip), vehicle: saline 101 % of control

CC(C)Nc1nc(NC(C)C)nc(NC(C)C)n1
inactive: [7] 92 % of control | [12] 87 % of control | [13] 90 % of control

O=C(O)CCC1CCCCC1=O (stereo not given)
inactive: endpoint: mean survival time, dose: 50.0 mg/kg/injection, schedule: Q01DX009 (ip), vehicle: Klucel (hydroxypropylcellulose) (HPC) 104 % of control | [6] 98 % of control | [10] 95 % of control | [7] 97 % of control | [11] 98 % of control | [12] 98 % of control

CC1=C(OCC(C)C)CCCC1=O
inactive: [1] 88 % of control | [2] 96 % of control | [4] 96 % of control

CC1CC(C)(C)CC2(C1)OCCCO2 (stereo not given)
inactive: [1] 90 % of control | [2] 102 % of control | [4] 98 % of control

Cc1ccc([N+](=O)[O-])o1
inactive: [3] 91 % of control | [5] 87 % of control

O=NN(Cc1ccc(Cl)cc1)C(=O)NCc1ccc(Cl)cc1
inactive: endpoint: mean survival time, dose: 400.0 mg/kg/injection, schedule: Q01DX Z (ip), vehicle: carboxymethylcellulose (CMC) 104 % of control

COC(=O)/C=C/Nc1ccccc1
inactive: endpoint: mean survival time, dose: 100.0 mg/kg/injection, schedule: Q04DX003 (ip), vehicle: other 98 % of control | endpoint: mean survival time, dose: 200.0 mg/kg/injection, schedule: Q04DX003 (ip), vehicle: other 98 % of control | endpoint: mean survival time, dose: 400.0 mg/kg/injection, schedule: Q04DX003 (ip), vehicle: other 94 % of control
